Ten compounds from ChEMBL document CHEMBL1201862, “PubChem BioAssay data set” (2004) can be followed below.

SMILES strings stand for the structures.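 Exposure lasted 48 hours, with cells grown in 96-well plates and compounds tested at five concentrations. GI50 is the concentration that inhibits growth by half.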 Activity calls are given as the source filed them. No stated cut-off is given here; in the data, active = GI50 up to about 1.1 µM and inactive = higher. Non-standard residues stand in square brackets, D forms with d. Residues, ends and D or L forms follow the SMILES beside them. ξ: configuration not given here. *: point of attachment. ξHyp = O=C(O)C1CC(O)CN1; Cbz = O=C(OCc1ccccc1)*

Among the test systems are COLO 205; SK-MEL-2; HCT-15; RPMI-8226; UACC-257; PC-3; A549; ACHN; NCI-H522; MDA-MB-231; SNB-75; SK-MEL-5; SK-OV-3; KM12; SF-268; Hs-578T; MDA-MB-435; T47D; MDA-N; SW-620.
Holding throughout (test): NCI-60 cell line screen, 48 h

As for `COc1ccc(C2C3COc4ccccc4C3=NN2c2ccccc2)cc1` (stereo unspecified), the GI50 is > 100 µM (inactive) in the assay on COLO 205; > 100 µM (inactive) in the assay with SK-MEL-2; over 100 µM in the assay on HCT-15; > 100 µM (inactive) in the assay on RPMI-8226; > 100 µM (inactive) in the assay with UACC-257; 57.7 µM (inactive) in the assay with PC-3. The GI50 in the assay on A549, in the assay with ACHN, with NCI-H522, in the assay on MDA-MB-231, in the assay on SNB-75 and in the assay with SK-MEL-5 was > 100 µM (inactive) each time. The GI50 with SK-OV-3 is > 100 µM (inactive); in the assay on KM12 it was > 100 µM (inactive); in the assay with SF-268, > 100 µM (inactive); with Hs-578T, > 100 µM (inactive); with MDA-MB-435 it was 62.4 µM (inactive); in the assay with T47D it was 48.8 µM (inactive). For the same compound, the GI50 in the assay with MDA-N and in the assay on SW-620 was > 100 µM (inactive) in each case.

`COC1CC(N)(c2ccccc2)C(O)C(C)O1` (stereo unspecified): the GI50 was > 100 µM (inactive) in the assay on COLO 205; > 100 µM (inactive) with SK-MEL-2; over 100 µM with HCT-15; > 100 µM (inactive) in the assay with RPMI-8226; > 100 µM (inactive) in the assay with UACC-257; > 100 µM (inactive) in the assay on PC-3. Besides, the GI50 with A549, in the assay on ACHN, with NCI-H522, with MDA-MB-231, with SNB-75 and in the assay with SK-MEL-5 was > 100 µM (inactive) in each case. Further, the GI50 in the assay on SK-OV-3, in the assay with SF-268, with Hs-578T, in the assay with MDA-MB-435, in the assay with T47D and in the assay on MDA-N was > 100 µM (inactive) throughout. Moreover, the GI50 in the assay on SW-620 is > 100 µM (inactive).

Consider `NC(=O)CNC(=O)C1CC(O)CN1C(=O)OCc1ccccc1` (stereo unspecified) (Cbz-[ξHyp]-Gly-NH2), for which the GI50 in the assay with COLO 205 was > 100 µM (inactive); in the assay with SK-MEL-2, > 100 µM (inactive); in the assay with HCT-15 it was over 100 µM; in the assay on RPMI-8226, > 100 µM (inactive); in the assay on UACC-257, > 100 µM (inactive); in the assay on PC-3, > 100 µM (inactive). The GI50 in the assay with A549, with ACHN, in the assay on NCI-H522, in the assay with MDA-MB-231, in the assay with SNB-75 and in the assay with SK-MEL-5 was > 100 µM (inactive) each time. For the same compound, the GI50 is > 100 µM (inactive) in the assay on SK-OV-3; > 100 µM (inactive) with KM12; 74.6 µM (inactive) in the assay on SF-268; > 100 µM (inactive) in the assay with Hs-578T; > 100 µM (inactive) with MDA-MB-435; > 100 µM (inactive) in the assay with T47D. Also, the GI50 in the assay on MDA-N and with SW-620 was > 100 µM (inactive) each time.

In the case of `O=S(=O)(SC1=NCCN1)c1ccc2ccccc2c1`, the GI50 in the assay on COLO 205 is 18.7 µM (inactive); with SK-MEL-2 it was 24.8 µM (inactive); in the assay on HCT-15, 25.1 µM; in the assay with RPMI-8226 it was 26.4 µM (inactive); in the assay on UACC-257 it was 39.4 µM (inactive); in the assay with PC-3, 30.7 µM (inactive). Besides, the GI50 in the assay on A549 is 26.8 µM (inactive); in the assay with ACHN, 39.5 µM (inactive); with NCI-H522 it was 17.4 µM (inactive); with MDA-MB-231, 17.2 µM (inactive); in the assay with SNB-75, 25.2 µM (inactive); with SK-MEL-5, 26.5 µM (inactive). Further, the GI50 is 22.6 µM (inactive) in the assay with SK-OV-3; 20.2 µM (inactive) with KM12; 23.2 µM (inactive) in the assay on SF-268; 35.6 µM (inactive) in the assay on Hs-578T; 20.7 µM (inactive) in the assay on MDA-MB-435; 81.7 µM (inactive) with T47D. The GI50 is 19.8 µM (inactive) in the assay with MDA-N and 19.7 µM (inactive) in the assay on SW-620.

Consider `CC12OC3(C(O)C1O)C(C(=O)O[C@H]3CO[Si](C)(C)C(C)(C)C)C2S(=O)(=O)c1ccccc1` (stereo partly specified), for which the GI50 in the assay on SK-MEL-2 was 88.7 µM (inactive); in the assay with HCT-15, 33.7 µM; in the assay on RPMI-8226, 27.1 µM (inactive); in the assay on UACC-257, 25.8 µM (inactive); in the assay with PC-3 it was 26.9 µM (inactive); in the assay with A549 it was 45 µM (inactive). For the same compound, the GI50 in the assay with ACHN is 48.1 µM (inactive); with NCI-H522, 17.5 µM (inactive); in the assay with MDA-MB-231 it was 60.3 µM (inactive); in the assay with SNB-75, 13.9 µM (inactive); in the assay with SK-OV-3 it was > 100 µM (inactive); in the assay with KM12, 33.3 µM (inactive). Also, the GI50 is 47.4 µM (inactive) in the assay on SF-268; 30 µM (inactive) in the assay on Hs-578T; 34.4 µM (inactive) with MDA-MB-435; 36.1 µM (inactive) in the assay with T47D; 61.4 µM (inactive) with MDA-N; 81.5 µM (inactive) with SW-620.

For `COc1ccc(NC(=S)Nc2cc(C)cc(C)n2)cc1`, the GI50 is > 100 µM (inactive) in the assay on COLO 205; > 100 µM (inactive) with SK-MEL-2; over 100 µM in the assay on HCT-15; > 100 µM (inactive) with RPMI-8226; > 100 µM (inactive) in the assay with UACC-257; > 100 µM (inactive) in the assay on PC-3. Also, the GI50 in the assay on A549, in the assay on NCI-H522, in the assay on MDA-MB-231, in the assay on SNB-75, with SK-MEL-5 and in the assay on SK-OV-3 was > 100 µM (inactive) throughout. Further, the GI50 in the assay with KM12, in the assay with SF-268, in the assay with Hs-578T, in the assay on MDA-MB-435, with T47D and in the assay on MDA-N was > 100 µM (inactive) each time. Also, the GI50 with SW-620 was > 100 µM (inactive).

As to `CCOC(=O)C(=O)N1C(C)=C(C(=O)OCC)CC(C(=O)OCC)=C1C`, the GI50 is > 100 µM (inactive) in the assay with COLO 205; > 100 µM (inactive) in the assay with SK-MEL-2; over 100 µM with HCT-15; > 100 µM (inactive) in the assay with RPMI-8226; > 100 µM (inactive) in the assay on UACC-257; > 100 µM (inactive) with PC-3. Further, the GI50 is > 100 µM (inactive) in the assay with A549; > 100 µM (inactive) in the assay with ACHN; > 100 µM (inactive) with NCI-H522; > 100 µM (inactive) in the assay with MDA-MB-231; 26.7 µM (inactive) in the assay with SNB-75; > 100 µM (inactive) with SK-MEL-5. Also, the GI50 in the assay with SK-OV-3, with KM12, in the assay with Hs-578T, in the assay on MDA-MB-435, in the assay on T47D and with MDA-N was > 100 µM (inactive) in each case. The GI50 in the assay on SW-620 is > 100 µM (inactive).

On to `S=c1nc(Nc2ccccc2)c2c3c(sc2[nH]1)CCCC3`, for which the GI50 in the assay with COLO 205 was > 100 µM (inactive); in the assay on SK-MEL-2, > 100 µM (inactive); in the assay with HCT-15, over 100 µM; with RPMI-8226 it was > 100 µM (inactive); in the assay on UACC-257 it was > 100 µM (inactive); in the assay with PC-3, > 100 µM (inactive). Also, the GI50 in the assay with ACHN was > 100 µM (inactive); in the assay with NCI-H522 it was 71.4 µM (inactive); with MDA-MB-231, > 100 µM (inactive); in the assay on SNB-75 it was > 100 µM (inactive); in the assay with SK-MEL-5 it was > 100 µM (inactive); in the assay with KM12, > 100 µM (inactive). In addition, the GI50 with SF-268, in the assay with Hs-578T, in the assay with MDA-MB-435, in the assay on T47D, with MDA-N and with SW-620 was > 100 µM (inactive) throughout.

As to `C/C(CC(O)(C(F)(F)Cl)C(F)(F)Cl)=N\Nc1ccccc1`, the GI50 in the assay with COLO 205 is 31.8 µM (inactive); with SK-MEL-2, 21.5 µM (inactive); with HCT-15, 32.1 µM; in the assay with RPMI-8226, 30.2 µM (inactive); in the assay on UACC-257 it was 44.7 µM (inactive); in the assay on PC-3, 22.2 µM (inactive). The GI50 with A549 was 37.2 µM (inactive); in the assay on ACHN it was 27 µM (inactive); with NCI-H522, 28.5 µM (inactive); in the assay with MDA-MB-231, 47.6 µM (inactive); with SNB-75 it was 28.9 µM (inactive); in the assay with SK-MEL-5 it was 19.1 µM (inactive). Further, the GI50 with SK-OV-3 is 29.4 µM (inactive); with KM12, 29.1 µM (inactive); with Hs-578T, 27.2 µM (inactive); in the assay with MDA-MB-435, 31.9 µM (inactive); in the assay with T47D it was 28.2 µM (inactive); in the assay on MDA-N it was 43.6 µM (inactive). Besides, the GI50 in the assay on SW-620 was 31 µM (inactive).

Take `CCOC(=O)CCC(NC(=O)c1ccc(Oc2nc3ccccc3nc2C(=O)OCC)cc1)C(=O)OCC` (stereo unspecified): the GI50 was > 100 µM (inactive) with COLO 205; > 100 µM (inactive) in the assay on SK-MEL-2; over 100 µM in the assay on HCT-15; > 100 µM (inactive) in the assay on RPMI-8226; > 100 µM (inactive) in the assay on UACC-257; > 100 µM (inactive) in the assay on PC-3. The GI50 with A549 was > 100 µM (inactive); with ACHN it was > 100 µM (inactive); in the assay with NCI-H522 it was > 100 µM (inactive); in the assay with MDA-MB-231 it was 40.4 µM (inactive); with SNB-75, 21.5 µM (inactive); in the assay with SK-MEL-5, > 100 µM (inactive). Further, the GI50 in the assay with KM12, in the assay with SF-268, in the assay with Hs-578T, with MDA-MB-435, in the assay with T47D and in the assay with MDA-N was > 100 µM (inactive) each time. The GI50 in the assay on SW-620 is > 100 µM (inactive).
